21 compounds from patent US8906930B2, “Quinazoline derivatives” (Merck Patent GmbH, priority 2009, dated 2014) can be followed below.

The experiment deals with T1, Recombinant human HSP90α (Homo sapiens, UniProt P07900).
T1 construct: host or cells: E. coli
As to the kind of experiment: HSP90 radioligand filter binding test ([3H]17AAG competition). The following applies: radioligand [3H]17AAG 0.08 μM; HSP90 1.5 μg/assay; 22° C., 30 min; read-out: HSP90 inhibition IC50. The source says:
The binding of geldanamycin or 17-allylamino-17-demethoxygeldanamycin (17AAG) to HSP90 and competitive inhibition thereof can be utilised in order to determine the inhibitory activity of the compounds according to the invention (Carreras et al. 2003, Chiosis et al. 2002).
In the specific case, a radioligand filter binding test is used. The radioligand used here is tritium-labelled 17-allylaminogeldanamycin, [3H]17AAG. This filter binding test allows a targeted search for inhibitors which interfere with the ATP binding site.
Recombinant human HSP90α (E. coli expressed, 95% purity);
[3H]17AAG (17-allylaminogeldanamycin, [allylamino-2,3-^3H. Specific activity: 1.11×10^12 Bq/mmol (Moravek, MT-1717);
HEPES filter buffer (50 mM HEPES, pH 7.0, 5 mM MgCl2, BSA 0.01%) Multiscreen FB (1 μm) filter plate (Millipore, MAFBNOB 50).
The 96-well microtitre filter plates are firstly irrigated and coated with 0.1% of polyethylenimine.
The test is carried out under the following conditions:
Reaction temperature 22° C.
Reaction time: 30 min., shaking at 800 rpm
50 mM HEPES HCl, pH 7.0, 5 mM MgCl2, 0.01% (w/v) of BSA
At the end of the reaction, the supernatant in the filter plate is removed by suction with the aid of a vacuum manifold (Multiscreen Separation System, Millipore), and the filter is washed twice.
The filter plates are then measured in a beta counter (Microbeta, Wallac) with scintillator (Microscint 20, Packard).
“% of control” is determined from the “counts per minutes” values, and the IC-50 value of a compound is calculated therefrom.

`C=C(CC(C(=O)NCC)c1ccc2nc(N)nc(C(=O)N3Cc4ccccc4C3)c2c1)C(N)=O` (stereo not drawn) [Compound A50, 2-[2-Amino-4-(isoindoline-2-carbonyl)quinazolin-6-yl]-N′-ethyl-2-methylene-pentanediamide]: the half-maximal inhibitory concentration (IC50) lay within 1000 to 10000 nM.

With `CCCC(C(=O)NCC)c1ccc2nc(N)nc(C(=O)N3Cc4ccccc4C3)c2c1` (stereo not drawn) [Compound A43, 2-[2-Amino-4-(isoindoline-2-carbonyl)quinazolin-6-yl]-N-ethylpentanamide], the half-maximal inhibitory concentration (IC50) lay in the range of 10 to 1000 nM.

With `CNC(=O)C(CCC(F)F)c1ccc2nc(N)nc(C(=O)N3Cc4ccccc4C3)c2c1` (stereo not drawn) [Compound A41, 2-[2-Amino-4-(isoindoline-2-carbonyl)quinazolin-6-yl]-N-methyl-5,5-difluoropentanamide], the IC50 lay in the range of 10 to 1000 nM.

As to `CCNC(=O)C(c1ccc2nc(N)nc(C(=O)N3Cc4ccccc4C3)c2c1)C(C)CC` (stereo not drawn) [Compound A47, 2-[2-Amino-4-(isoindoline-2-carbonyl)quinazolin-6-yl]-N-ethyl-3-methylpentanamide], the 50% inhibitory concentration (IC50) was in the range of 10 to 1000 nM.

Take `Nc1nc(C(=O)N2Cc3ccccc3C2)c2cc(CC(=O)N3CCNCC3)ccc2n1` [Compound A18, 2-[2-amino-4-(isoindoline-2-carbonyl)quinazolin-6-yl]-1-piperazin-1-ylethanone]: the IC50 is more than 10000 nM.

Turning to `CCNC(=O)C(CC(C)C)c1ccc2nc(N)nc(C(=O)N3Cc4ccccc4C3)c2c1` (stereo not drawn) [Compound A46, 2-[2-Amino-4-(isoindoline-2-carbonyl)quinazolin-6-yl]-N-ethyl-4-methylpentanamide], the 50% inhibitory concentration (IC50) fell in the range of 10 to 1000 nM.

As to `CCN(C)C(=O)C1(c2ccc3nc(N)nc(C(=O)N4Cc5ccccc5C4)c3c2)CC1` [Compound A23, 1-[2-Amino-4-(isoindoline-2-carbonyl)quinazolin-6-yl]-N-ethyl-N-methylcyclopropanecarboxamide], the IC50 is 1000 to 10000 nM.

Take `CNC(=O)Cc1ccc2nc(N)nc(C(=O)N3Cc4ccccc4C3)c2c1` [Compound A16, 2-[2-Amino-4-(isoindoline-2-carbonyl)quinazolin-6-yl]-N-methylacetamide]: the 50% inhibitory concentration (IC50) fell in the range of 1000 to 10000 nM.

For `CN(Cc1cncn1C)C(=O)Cc1ccc2nc(N)nc(C(=O)N3Cc4ccccc4C3)c2c1` [Compound A19], the IC50 lay within 1000 to 10000 nM.

For `CCNC(=O)C1(c2ccc3nc(N)nc(C(=O)N4Cc5ccccc5C4)c3c2)CC1` [Compound A21, 1-[2-Amino-4-(isoindoline-2-carbonyl)quinazolin-6-yl]-N-ethylcyclopropanecarboxamide], the 50% inhibitory concentration (IC50) lay in the range of 10 to 1000 nM.

As for `CN(C)C(=O)Cc1ccc2nc(N)nc(C(=O)N3Cc4ccccc4C3)c2c1` [Compound A9, 2-[2-Amino-4-(isoindoline-2-carbonyl)quinazolin-6-yl]-N,N-dimethylacetamide], the IC50 fell in the range of 1000 to 10000 nM.

As for `CN(CCO)C(=O)C1(c2ccc3nc(N)nc(C(=O)N4Cc5ccccc5C4)c3c2)CC1` [Compound A25, 1-[2-Amino-4-(isoindoline-2-carbonyl)quinazolin-6-yl]-N-(2-hydroxyethyl)-N-methylcyclopropanecarboxamide], the 50% inhibitory concentration (IC50) is 1000 to 10000 nM.

Turning to `NC(=O)C(CCC(F)F)c1ccc2nc(N)nc(C(=O)N3Cc4ccccc4C3)c2c1` (stereo not drawn) [Compound A4], the IC50 is 10 to 1000 nM.

With `NC(=O)CNC(=O)C1(c2ccc3nc(N)nc(C(=O)N4Cc5ccccc5C4)c3c2)CCC1` [Compound A33, 1-[2-Amino-4-(isoindoline-2-carbonyl)quinazolin-6-yl]-N-(2-amino-2-oxoethyl)cyclobutanecarboxamide], the 50% inhibitory concentration (IC50) was in the range of 10 to 1000 nM.

`CCN(CC)C(=O)Cc1ccc2nc(N)nc(C(=O)N3Cc4ccccc4C3)c2c1` [Compound A8, 2-[2-amino-4-(isoindoline-2-carbonyl)quinazolin-6-yl]-N,N-diethylacetamide]: the IC50 fell in the range of 1000 to 10000 nM.

In the case of `CC(C)(C)NC(=O)C(C)(C)c1ccc2nc(N)nc(C(=O)N3Cc4ccccc4C3)c2c1` [Compound A35, 2-[2-Amino-4-(isoindoline-2-carbonyl)quinazolin-6-yl]-N-tert-butyl-2-methylpropanamide], the IC50 was in the range of 10 to 1000 nM.

On to `CNC(=O)C1(c2ccc3nc(N)nc(C(=O)N4Cc5ccccc5C4)c3c2)CCC1` [Compound A31, 1-[2-Amino-4-(isoindoline-2-carbonyl)quinazolin-6-yl]-N-methylcyclobutanecarboxamide], for which the IC50 was 10 to 1000 nM.

In the case of `CCCC(C)(C(=O)NCC)c1ccc2nc(N)nc(C(=O)N3Cc4ccccc4C3)c2c1` (stereo not drawn) [Compound A55, 2-[2-Amino-4-(isoindoline-2-carbonyl)quinazolin-6-yl]-N-ethyl-2-methylpentanamide], the concentration for half-maximal inhibition (IC50) was 10 to 1000 nM.

Turning to `CN(CCO)C(=O)Cc1ccc2nc(N)nc(C(=O)N3Cc4ccccc4C3)c2c1` [Compound A11, 2-[2-Amino-4-(isoindoline-2-carbonyl)quinazolin-6-yl]-N-(2-hydroxyethyl)-N-methylacetamide], the half-maximal inhibitory concentration (IC50) is 1000 to 10000 nM.

In the case of `Nc1nc(C(=O)N2Cc3ccccc3C2)c2cc(CC(=O)O)ccc2n1` [Compound A2, 2-[2-Amino-4-(isoindoline-2-carbonyl)quinazolin-6-yl]acetic acid], the half-inhibitory concentration (IC50) lay in the range of 1000 to 10000 nM.

For the compound `CCN(C)C(=O)Cc1ccc2nc(N)nc(C(=O)N3Cc4ccccc4C3)c2c1` [Compound A10, 2-[2-Amino-4-(isoindoline-2-carbonyl)quinazolin-6-yl]-N-ethyl-N-methylacetamide], the half-maximal inhibitory concentration (IC50) fell in the range of 1000 to 10000 nM.
